# Values of other authors in patent EP0211258A2, “Microemulsion compositions” (ABBOTT LABORATORIES, priority 1985, dated 1987).
# Conditions: commonly employed aqueous solutions, 2.5%, w/v
smiles,measurement,value
CCCC(C)C1(CC)C(=O)NC(=S)NC1=O (stereo not shown) [thiopental sodium],pH,10.5
